According to patent US11833225B2, “Methods and compositions for efficient gene deletion” (CRISPR Therapeutics AG, priority 2018, dated 2023):
Values joined by “and” are separate entries in the source; they are usually repeats but may differ in a detail not shown here. Equal entries are not always repeated.

Columns and labels:
Type in all cases: cell-based, human
[1] = test system: CCR5 gene; assay: CCR5 deletion frequency by ddPCR in edited CD34+ cells
From the text: The C-C chemokine receptor type 5 (CCR5) is a key player in HIV infection due to its major involvement in the infection process. A limited number of people harbor a genomic 32-bp deletion in the CCR5 gene ([…]), leading to expression of a truncated gene product that provides resistance to HIV-1 infection in individuals homozygous for this mutation. Dual gRNAs were designed to target this region of the CCR5 gene. FIG. 8 diagrams the CCR5 gene and the location of TB48 gRNA and TB7 gRNA target sites (bordering a 735 bp deletion).
Human peripheral blood CD34+ cells were cultured and as electroporated with Cas9 and the two gRNAs essentially as described above in Example 1. Nu7441 was delivered to the cells (0, 1.25, 2.5, 5 μM) immediately after electroporation. Deletion efficiency was determined by ddPCR two days after electroporation.
Additional gRNAs were designed to delete larger segments from CCR5, i.e., TB74 and TB 25 for a 5700 bp deletion, and TB48 and TB25 for a 2672 bp deletion (FIG. 10). The gRNAs (and Cas9) were introduced at two dose levels (0.75 or 1.5 μg each) and cells were exposed to 0, 2.5, or 5 μM Nu7441.
Another DNA-PK inhibitor, M3814, was tested to determine whether deletions were increased in its presence. Populations of newly electroporated cells were exposed to four concentrations of M3814 ranging from 0.078 μM to 0.625 μM.

[2] = test system: CD34+ hHSPCs; assay: Cell viability by Trypan blue
Method: Cell viability was also assessed using Trypan blue, a standard method for detecting hematopoietic stem cell viability.

[3] = test system: CD34+ hHSPCs; assay: Cell proliferation (fold growth) by hemocytometer counting
Method: Cell proliferation was also assessed using a cell counting device (hemocytometer).

[4] = test system: HPFH5; assay: Colony forming assay (CFU), clonal editing analysed by ddPCR
Method: The effects of Nu7441 on CRISPR-Cas9 gene editing using the dual gRNA approach (HPFH5-1 and HPFH5-D) was measured using a colony forming assay (CFU). CFU assay is an in vitro cellular assay that measures the proliferation and differentiation potential of human HSPCs. Following electroporation with dual gRNAs/Cas9 and treatment with Nu7441 (2.5 μM), CD34+ hHSPCs were diluted and plated in suspension in the presence of methylcellulose to promote stem cell differentiation. After 14 days, colonies grown from single erythroid-lineage HSPCs were analyzed for gene editing by ddPCR (Table 3).

[5] = test system: HPFH5; assay: Tracking of Indels by Decomposition (TIDE), single gRNA indel and MMEJ species
Method: Tracking of Indels by Decomposition (TIDE) was utilized to determine if treatment with Nu7441 results in increased single gRNA indels as a result of NHEJ inhibition. This technology precisely determines the spectrum and frequency of indels and MMEJ species generated by single HPFH5-1 gRNA or HPFH5-D gRNAs in the presence of Nu7441 by comparing the results of standard PCR reactions and Sanger sequencing reactions. Cells were electroporated with 1.5 μg Cas and 1.5 μg HPFH5-D or 1.5 μg HPFH5-1 or no gRNA. Cells were treated with 0, 0.625 μM, 1.25 μM, 2.5 μM, or 5 μM Nu7441.

[6] = test system: HPFH5; assay: HPFH5 deletion frequency by droplet digital PCR (ddPCR) in edited CD34+ hHSPCs; conditions: increased from 30% without inhibitor, dose-dependent, 0.3125-5 μM; Cas9 + dual gRNAs; 48 hours post electroporation
Method: Mobilized human peripheral blood (mPB) CD34+ cells from three independent human donors were cultured in serum free CellGro® media including 100 ng/ml recombinant human stem cell factor (SCF), 100 ng/ml recombinant human Flt 3-Ligand (FLT3L), and 100 ng/ml Thrombopoietin (TPO). 100,000 cells per condition were electroporated using Lonza Amaxa 4D electroporator without any CRISPR/Cas9 editing components as a negative control (mock electroporation sample), with HPFH5-1+HPFH5-D sgRNAs and Cas9 protein (1+D), or with HPFH5-5+HPFH5-D sgRNAs and Cas9 protein (5+D). The recombinant S. pyogenes Cas9 protein was flanked by two SV40 nuclear localization sequences (NLSs). These experiments were performed using a ribonucleoprotein (RNP) 1:1 weight ratio of gRNA to Cas9.
The deletion frequency was determined by droplet digital PCR (ddPCR) two days after electroporation for each cell population (i.e., mock, 1+D, and 5+D).
Dual gRNAs (HPFH5-1 and HPFH-D, or HPFH5-5 and HPFH-D), as well as Cas9 protein, were also titrated in CD34+ hHSPCs. […]
The deletion frequency was determined by droplet digital PCR (ddPCR) two days after electroporation for each of the cells electroporated with HPFH5-1+HPFH5-D gRNAs, or cells electroporated with HPFH5-5+HPFH5-D gRNAs.

[7] = test system: HPFH5; assay: Single gRNA and Cas9 titration, single guide editing percentage in CD34+ hHSPCs; conditions: 48 hour post-electroporation
From the text: Single HPFH5-1, HPFH5-5 and HPFH5-D gRNAs, as well as Cas9 protein, were titrated in CD34+ hHSPCs to determine the effects on deletion efficiency.

[8] = HPFH5-1 + HPFH5-D gRNAs/Cas9 + 2.5 μM Nu7441
[9] = HPFH5-1 + HPFH5-D gRNAs/Cas9 + 2.5 μM Nu7441, colonies after 14 days

With `COc1ccc([C@@H](O)c2cc(-c3ncnc4cc(N5CCOCC5)ccc34)c(F)cc2Cl)nn1` [M3814, (S)-(2-chloro-4-fluoro-5-(7-morpholinoquinazolin-4-yl)phenyl)(6-methoxypyridazin-3-yl)methanol] the “percentage of deletions in CCR5” value ([1]; four concentrations from 0.078 μM to 0.625 μM, TB74+TB25 or TB48+TB25 gRNAs, 48 hours post electroporation) was “increased in a dose-dependent manner” and the “percentage increase in deletions in CCR5 compared with Nu7441” value ([1]; highest concentration (0.625 μM)) was “about the same percentage increase in deletions as Nu7441”.

With `O=c1cc(N2CCOCC2)oc2c(-c3cccc4c3sc3ccccc34)cccc12` [Nu7441, 8-(4-dibenzothienyl)-2-(4-morpholinyl)-4H-1-benzopyran-4-one] the cell viability ([2]; CCR5 editing with TB48 + TB7 gRNAs, highest concentration (5 μM)) was “decreased slightly”, the cell viability ([2]; concentrations of less than 5 μM, 48 hours post electroporation, HPFH5 dual gRNAs) was “did not adversely affect cell viability” and the cell viability ([2]; highest dose 5 μM, HPFH5 dual gRNAs) was “slightly reduced”. For the same molecule, the “cell proliferation (fold growth)” value ([3]; concentrations of less than 5 μM, 48 hours post electroporation) was “did not adversely affect cell proliferation”, the cell proliferation ([3]; highest concentration (5 μM)) was “reduced” and the “increase of percentage of HPFH5 heterozygotes relative to untreated cells” value ([4]; 2.5 μM Nu7441) was 3 fold. For the same molecule, the “% Alleles edited from clones” value [4, 8] was 40%, the “% Edited cells” value [4, 8] was 63% and the “Bulk editing from ddPCR” value [4, 8] was 43%. The “% Heterozygotes” value [4, 9] was 46.2%, the “% Homozygotes” value [4, 9] was 17.3% and the “% WT” value [4, 9] was 36.5%. For the same molecule, the “# Edited alleles” value ([4]; HPFH5-1 + HPFH5-D gRNAs/Cas9 + 2.5 μM Nu7441, of 104 total alleles (52 clones)) was 42, the “increase of number of alleles edited from clones” value ([4]; in the presence of Nu7441 (2.5 μM)) was 2 fold and the “frequency of deletion in CCR5” value ([1]; TB48 + TB7 gRNAs (735 bp deletion), 0, 1.25, 2.5, 5 μM, two days after electroporation) was “increased the frequency of deletion in CCR5 in a dose-dependent manner”. The “increase of percent of deletions in CCR5” value ([1]; TB48 + TB7 gRNAs, highest dose (5 μM)) was “more than two-fold”, the “increase of the percent of deletions in CCR5” value ([1]; TB74 + TB25 (5700 bp) and TB48 + TB25 (2672 bp) gRNAs, 0.75 or 1.5 μg each, 2.5 or 5 μM, all conditions) was 20-70% and the “potential microhomology-mediated end joining (MMEJ) species” value ([5]; Cas9 and HPFH5 gRNA) was “increased”. For the same molecule, the “effect on single guide editing (indel frequency)” value ([5]; HPFH5-1 gRNA 1.5 μg + Cas9 1.5 μg, 0.625-5 μM) was “not major effects”, the “effect on indel frequency” value ([5]; HPFH5-D gRNA 1.5 μg + Cas9 1.5 μg, higher concentrations) was “increased indel frequency” and the “number of wild-type sequences in HPFH5 relative to untreated cells” value ([5]; HPFH5-D gRNA, 5 μM) was “decrease”. For the same molecule, the “percentage of 10-15 base pair deletions relative to untreated cells” value ([5]; HPFH5-D gRNA, 5 μM) was “increase” and the “HPFH5 deletion efficiency reached with Nu7441” value [6] was 45% and 40%.

B1: HPFH5-D: 5′ gRNA targeting the HPFH5 locus, SEQ ID NO: 6, used with Cas9 protein (nucleic acid)
guide: CUGUUGGUUUCAGAGCAGGUGUUUUAGAGCUAGAAAUAGCAAGUUAAAAUAAGGCUAGUCCGUUAUCAACUUGAAAAAGUGGCACCGAGUCGGUGCUUUU
modifications: listed as RNA, chemistry not given here
With B1 the “% Single Guide Editing” value ([7]; gRNA 1 μg, Cas9 1 μg) was 20.8%, the “% Single Guide Editing” value ([7]; gRNA 2 μg, Cas9 2 μg) was 61.4% and the “% Single Guide Editing” value ([7]; gRNA 3 μg, Cas9 3 μg) was 70.9%. For the same molecule, the “% Single Guide Editing” value ([7]; gRNA 4 μg, Cas9 4 μg) was 80.4%.

B2: HPFH5-1: 3′ gRNA targeting the HPFH5 locus, SEQ ID NO: 2, used with Cas9 protein (nucleic acid)
guide: AUUUUUCUUAUUCAAUACCUGUUUUAGAGCUAGAAAUAGCAAGUUAAAAUAAGGCUAGUCCGUUAUCAACUUGAAAAAGUGGCACCGAGUCGGUGCUUUU
modifications: listed as RNA, chemistry not given here
With B2 the “% Single Guide Editing” value ([7]; gRNA 1 μg, Cas9 1 μg) was 35.6%, the “% Single Guide Editing” value ([7]; gRNA 2 μg, Cas9 2 μg) was 62.9% and the “% Single Guide Editing” value ([7]; gRNA 3 μg, Cas9 3 μg) was 72.1%. The “% Single Guide Editing” value ([7]; gRNA 4 μg, Cas9 4 μg) was 75.7%.

B3: HPFH5-5: 3′ gRNA targeting the HPFH5 locus, SEQ ID NO: 4, used with Cas9 protein (nucleic acid)
guide: CUCCCCCACUCACAGUGACCGUUUUAGAGCUAGAAAUAGCAAGUUAAAAUAAGGCUAGUCCGUUAUCAACUUGAAAAAGUGGCACCGAGUCGGUGCUUUU
modifications: listed as RNA, chemistry not given here
B3 was tested, and the “% Single Guide Editing” value ([7]; gRNA 1 μg, Cas9 1 μg) was 40.5%, the “% Single Guide Editing” value ([7]; gRNA 2 μg, Cas9 2 μg) was 56.5% and the “% Single Guide Editing” value ([7]; gRNA 3 μg, Cas9 3 μg) was 60.3%. For the same molecule, the “% Single Guide Editing” value ([7]; gRNA 4 μg, Cas9 4 μg) was 66.3%.
